# Reference: patent publication USRE47689E1, “Compounds for treating spinal muscular atrophy” (PTC Therapeutics, Inc., priority 2011, dated 2019)
# Read-outs that look alike come from different tables or passages of the source.
# Key:
# [1] = tested on: SMN2 minigene (full length SMN2 minigene mRNA containing SMN2 exon 7); experiment: SMN2 minigene mRNA splicing RT-qPCR assay in cultured cells; format: cell-based, human; conditions: Homo sapiens, HEK293-H, read-out: EC1.5x for production of full length SMN2 mRNA
# Summary of the method: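 Lysates → one-step RT-qPCR, minigene-specific primers (0.4 μM final) + GAPDH multiplex, 40 cycles. FL/GAPDH vs DMSO; EC1.5x, star-binned.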
# Smn protein = Smn protein assay in cultured cells (SMN HTRF); format: cell-based, human; conditions: 48 hours; for maximum fold (Fold) increase of Smn protein: SMA patient fibroblast cells, 7-point concentration data, fold increase relative to vehicle control (SMN HTRF); for EC1.5x (concentration giving 1.5-fold Smn protein increase): SMA Type 1 patient fibroblast cells (GM03813), 7-point concentration curve, SMN HTRF, concentration producing 1.5 times Smn protein vs DMSO vehicle control, read-out: EC1.5x for Smn protein expression
# Summary of the method: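 Smn in SMA fibroblast lysates, measured by anti-SMN HTRF after 48 h compound exposure; EC1.5x from fold change over vehicle.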
# [2] = HEK293H cells stably transfected with SMN2-A minigene, 24 hours, 7-point concentration curve, 1.5-fold relative to vehicle-treated cells
melting point,Compound,"EC (1.5-fold) [1, 2] [µM]",maximum fold (Fold) increase of Smn protein (Smn protein),EC1.5x (concentration giving 1.5-fold Smn protein increase) (Smn protein) [nM],EC (1.5-fold) ([1]; 24 h) [µM]
202 to 206 °C,"O=c1oc2cc(N3CCNCC3)ccc2cc1-c1cc(F)cc(F)c1 [Compound 291, 3-(3,5-difluorophenyl)-7-(piperazin-1-yl)-2H-chromen-2-one]",0.3 to 1,* (maximum fold increase of ≤1.2),,
277 to 287 °C,"CN1CCN(c2ccc3cc(-c4cn5cc(C6CC6)cc(F)c5n4)c(=O)oc3c2)CC1 [Compound 504, 3-(6-cyclopropyl-8-fluoroimidazo[1,2-a]pyridin-2-yl)-7-(4-methylpiperazin-1-yl)-2H-chromen-2-one]",1 to 3,* (maximum fold increase of ≤1.2),,
221 to 227 °C,"CC1(C)CN(c2ccc3cc(-c4cn5ccc(C(F)(F)F)cc5n4)c(=O)oc3c2)CCN1 [Compound 269, 7-(3,3-dimethylpiperazin-1-yl)-3-[7-(trifluoromethyl)imidazo[1,2-a]pyridin-2-yl]-2H-chromen-2-one]",1 to 3,* (maximum fold increase of ≤1.2),,
257 to 267 °C,"C[C@@H]1CN(c2ccc3cc(-c4cn5cc(C6CC6)cc(F)c5n4)c(=O)oc3c2)C[C@H](C)N1 [Compound 497, 3-(6-cyclopropyl-8-fluoroimidazo[1,2-a]pyridin-2-yl)-7-[(3R,5S)-3,5-dimethylpiperazin-1-yl]-2H-chromen-2-one]",0.3 to 1,* (maximum fold increase of ≤1.2),,
196 to 199 °C,"CN1CCCN(c2ccc3cc(-c4cn5cccc(C(F)(F)F)c5n4)c(=O)oc3c2)CC1 [Compound 293, 7-(4-methyl-1,4-diazepan-1-yl)-3-[8-(trifluoromethyl)imidazo[1,2-a]pyridin-2-yl]-2H-chromen-2-one]",0.3 to 1,* (maximum fold increase of ≤1.2),,
186 to 188 °C,"O=c1oc2cc(N3CCNCC3)ccc2cc1-c1cc2ccccn2c1 [Cpd 529, 3-(indolizin-2-yl)-7-(piperazin-1-yl)-2H-chromen-2-one]",1 to 3,* (maximum fold increase of ≤1.2),,
232 to 238 °C,"Cc1cc(C)c2nc(-c3cc4ccc(N5CCN(C)CC5)cc4oc3=O)cn2c1 [Compound 261, 3-(6,8-dimethylimidazo[1,2-a]pyridin-2-yl)-7-(4-methylpiperazin-1-yl)-2H-chromen-2-one]",0.3 to 1,** (fold increase between >1.2 and ≤1.35),,
164 to 169 °C,"Cc1cc(C)c2nc(-c3cc4ccc(N5CCCN(C)CC5)cc4oc3=O)cn2c1 [Compound 389, 3-(6,8-dimethylimidazo[1,2-a]pyridin-2-yl)-7-(4-methyl-1,4-diazepan-1-yl)-2H-chromen-2-one]",0.3 to 1,*** (fold increase between >1.35 and ≤1.5),,
296 to 306 °C,"Cc1cc(F)c2nc(-c3cc4ccc(N5CCN6CCC[C@H]6C5)cc4oc3=O)cn2c1 [Compound 560, 3-(8-fluoro-6-methylimidazo[1,2-a]pyridin-2-yl)-7-[(8aS)-hexahydropyrrolo[1,2-a]pyrazin-2(1H)-yl]-2H-chromen-2-one]",0.1 to 0.3,**** (fold increase between >1.5 and ≤1.65),< 300,
> 300 °C,"Cc1cnc2nc(-c3cc4ccc(N5CCNCC5)cc4oc3=O)cn2c1 [Cpd 241, 3-(6-methylimidazo[1,2-a]pyrimidin-2-yl)-7-(piperazin-1-yl)-2H-chromen-2-one]",0.3 to 1,* (maximum fold increase of ≤1.2),,
239 to 241 °C,"COc1ccc(-c2cc3c(F)cc(N4C[C@@H]5C[C@H]4CN5)cc3oc2=O)cc1OC [Compound 446, 7-[(1S,4S)-2,5-diazabicyclo[2.2.1]hept-2-yl]-3-(3,4-dimethoxyphenyl)-5-fluoro-2H-chromen-2-one]",3 to 30,* (maximum fold increase of ≤1.2),,
229 to 232 °C,"Cc1cn2cc(-c3cc4ccc(N5C[C@@H](C)N(C)[C@@H](C)C5)cc4oc3=O)nc2c(C)n1 [Compound 605, 3-(6,8-dimethylimidazo[1,2-a]pyrazin-2-yl)-7-[(3R,5S)-3,4,5-trimethylpiperazin-1-yl]-2H-chromen-2-one]",< 0.1,***** (fold increase >1.65),< 300,
210 to 212 °C,"Cc1cn2cc(-c3cc4c(F)cc(N5CCCN(C)CC5)cc4oc3=O)nc2cn1 [Compound 591, 5-fluoro-7-(4-methyl-1,4-diazepan-1-yl)-3-(6-methylimidazo[1,2-a]pyrazin-2-yl)-2H-chromen-2-one]",< 0.1,***** (fold increase >1.65),< 300,
218 to 220 °C,"Cc1cc2cc(-c3cc4ccc(N5CCNCC5)cc4oc3=O)oc2c(C)n1 [Cpd 723, 3-(5,7-dimethylfuro[2,3-c]pyridin-2-yl)-7-(piperazin-1-yl)-2H-chromen-2-one]",< 0.1,***** (fold increase >1.65),< 300,
225 to 230 °C,"O=c1oc2cc(N3CCCNCC3)ccc2cc1-c1cn2ccsc2n1 [Compound 206, 7-(1,4-diazepan-1-yl)-3-(imidazo[2,1-b][1,3]thiazol-6-yl)-2H-chromen-2-one]",0.3 to 1,** (fold increase between >1.2 and ≤1.35),,
205 to 208 °C,"CCN1CCN(c2ccc3cc(-c4cn5cc(C)ncc5n4)c(=O)oc3c2)C[C@@H]1C [Compound 627, 7-[(3S)-4-ethyl-3-methylpiperazin-1-yl]-3-(6-methylimidazo[1,2-a]pyrazin-2-yl)-2H-chromen-2-one]",< 0.1,***** (fold increase >1.65),< 300,
268 to 275 °C,"Cc1cc(F)c2nc(-c3cc4ccc(N5C[C@@H](C)N[C@@H](C)C5)cc4oc3=O)cn2c1 [Compound 354, 7-[(3R,5S)-3,5-dimethylpiperazin-1-yl]-3-(8-fluoro-6-methylimidazo[1,2-a]pyridin-2-yl)-2H-chromen-2-one]",< 0.1,*** (fold increase between >1.35 and ≤1.5),1000 to 3000,
252 to 260 °C,"C[C@H]1CN(c2ccc3cc(-c4cn5ccc(C(F)(F)F)cc5n4)c(=O)oc3c2)CCN1 [Compound 268, 7-[(3S)-3-methylpiperazin-1-yl]-3-[7-(trifluoromethyl)imidazo[1,2-a]pyridin-2-yl]-2H-chromen-2-one]",0.3 to 1,* (maximum fold increase of ≤1.2),,
141 to 145 °C,"CC(C)NCc1ccc2cc(-c3cn4ccsc4n3)c(=O)oc2c1 [Compound 199, 3-(imidazo[2,1-b][1,3]thiazol-6-yl)-7-[(propan-2-ylamino)methyl]-2H-chromen-2-one]",1 to 3,** (fold increase between >1.2 and ≤1.35),,
260 to 270 °C,"CN1CCN(c2ccc3cc(-c4nc(C(F)(F)F)cs4)c(=O)oc3c2)CC1.O=C(O)C(F)(F)F [Compound 53, 7-(4-methylpiperazin-1-yl)-3-[4-(trifluoromethyl)-1,3-thiazol-2-yl]-2H-chromen-2-one trifluoroacetate]",3 to 30,** (fold increase between >1.2 and ≤1.35),,
186 to 188 °C,"Cc1cn2cc(-c3cc4ccc(CCN5CCNCC5)cc4oc3=O)nc2c(C)n1 [Compound 866, 3-(6,8-dimethylimidazo[1,2-a]pyrazin-2-yl)-7-[2-(piperazin-1-yl)ethyl]-2H-chromen-2-one]",0.1 to 0.3,*** (fold increase between >1.35 and ≤1.5),300 to 1000,
213 to 216 °C,"Cc1csc2nc(-c3cc4ccc(N5CCN(C)CC5)cc4oc3=O)cn12 [Compound 185, 3-(3-methylimidazo[2,1-b][1,3]thiazol-6-yl)-7-(4-methylpiperazin-1-yl)-2H-chromen-2-one]",3 to 30,* (maximum fold increase of ≤1.2),,
300 to 302 °C,"CN1CCCN(c2cc(F)c3cc(-c4cn5cccnc5n4)c(=O)oc3c2)CC1 [Compound 335, 5-fluoro-3-(imidazo[1,2-a]pyrimidin-2-yl)-7-(4-methyl-1,4-diazepan-1-yl)-2H-chromen-2-one]",0.1 to 0.3,*** (fold increase between >1.35 and ≤1.5),1000 to 3000,

Compound,melting point,"EC (1.5-fold) [1, 2] [µM]",maximum fold (Fold) increase of Smn protein (Smn protein),EC1.5x (concentration giving 1.5-fold Smn protein increase) (Smn protein) [nM],EC (1.5-fold) ([1]; 24 h) [µM]
"Cc1c[nH]nc1-c1cc2ccc(N3CCNCC3)cc2oc1=O [Cpd 80, 3-(4-methyl-1H-pyrazol-3-yl)-7-(piperazin-1-yl)-2H-chromen-2-one]",175 to 200 °C (dec.),,** (fold increase between >1.2 and ≤1.35),,3 to 30
